Measurements taken from publication PMC10142861, “Synthesis, Antiproliferative Effect and In Silico LogP Prediction of BIM-23052 Analogs Containing Tyr Instead of Phe” (Pharmaceutics, 2023).
“And” between values parts separate entries of the source, which are not always exact repeats. Equal entries are not always repeated. Where two headings read alike, the source gives them in different places. Square brackets hold non-standard residues; d marks the D form. Peptide text beside a SMILES is read from it.

What was measured:
[1] = test system: MCF-7 breast cancer cells; conditions: for IC50: 72 h
Text: (§1) The breast cancer cells MDA-MB-231 (ATCC: HTB-26) and MCF-7 (ATCC: HTB-22) were used to determine antiproliferative activity under in vitro conditions. The breast epithelial cells (MCF-10A, ATCC: CRL-10317) and mouse embryonic fibroblasts (BALB/c 3T3 clone A31, ATCC: CCL-163) were used as control. Cell cultures were purchased from American Type Cultures Collection (ATCC, Manassas, Virginia, USA). In cell culture, growth medium DMEM-high glucose, 10% (v/v) FBS and antibiotics (Sigma-Aldrich, Schnelldorf, Germany) were used. Cells were incubated at 37 °C, 5% CO2 and 95% humidity. Cells were grown in plastic flasks with a surface of 75 cm^2 (Deltalab S.L., Barcelona, Spain).
(§2) Cell viability was determined by a colorimetric MTT-dye reduction assay. The method is based on an enzyme reaction leading to the reduction of […] (MTT) to formazan crystals. The concentration of formazan, which is directly proportional to cell viability, was determined by a spectrophotometric method. Cells (MCF-7, MDA-MB-231 and MCF-10A) were seeded at a 1 × 10^3 cells/100 µL/well in 96-well microplates. The plates were placed in a thermostat under standard conditions for 24 h. Cells were then treated with the peptide analogs at concentrations ranging from 7.5 to 2000 μm. The cells were then incubated in a thermostat for 72 h. The formazan concentration was measured spectrophotometrically by a microplate reader at a wavelength of 540 nm. The antiproliferative potential of BIM-23052 analogs was presented as IC50 values, calculated using GraphPad Prizm Software (San Diego, CA, USA).
(§3) The antiproliferative activity of BIM-23052 analogs was studied by MTT assay. The normal and tumor cell cultures were incubated with the peptide analogs with a concentration range from 7.5 to 2000 μm for 72 h. The antiproliferative activity was determined (Figure 3 and Table 3).
(§4) Figure 3 Dose–response curves for antiproliferative activity of BIM-23052 analogs determined in MCF-10A (ATCC® CRL-10317^TM), MCF-7 (ATCC® HTB-22^TM) and MDA-MB-231 (ATCC® HTB-26^TM) cell lines. Mean values are presented ± SD from three independent experiments, n = 6.

[2] = test system: MDA-MB-231 breast cancer cells; conditions: for IC50: 72 h
Text: as §1, §2, §3, §4

[3] = test system: MCF-10A breast epithelial cells; conditions: 72 h
Text: as §1, §2, §3, §4

in vitro = conditions: mouse
Text: as §1
A safety test was performed on the method BALB/c 3T3 Neutral Red Uptake cytotoxicity Assay. The data generated from the in vitro cytotoxicity assay can be used to determine the safety level of the investigated substances and can predict the starting doses for in vivo toxicity assays. The cells (BALB/c 3T3, clone A31) were seeded at 1 × 10^4 cells/100 μL/well in 96-well flat-bottomed microplates. The plates were placed in a thermostat at 37 °C, 5% CO2 and 95% humidity for 24 h. Peptides were pre-dissolved in DMSO and then culture medium (DMEM) was added. The cells were treated with the BIM-23052 analogs at concentrations from […]. The treated cell culture was incubated for 24 h in a thermostat under standard conditions. The microplates were then washed twice with PBS, and Neutral Red Desorb (1% acetic acid/50% ethanol/49% water) was added. Absorbance was measured by a microplate reader at a wavelength of 540 nm.
The safety test of BIM-23052 analogues was carried out by Neutral Red Uptake cytotoxicity Assay. Cell cultures were incubated with the tested peptide analogs for 24 h.
Mean values are presented ± SD from three independent experiments, n = 6.

[4] = read-out: Mean IC50 ± SD, Antiproliferative Effect, MCF-7, MTT, 7.5 to 2000 μm, absorbance 540 nm, mean ± SD, three independent experiments, n = 6
[5] = read-out: Mean IC50 ± SD, Antiproliferative Effect, MDA-MB-231, MTT, 7.5 to 2000 μm, absorbance 540 nm, mean ± SD, three independent experiments, n = 6
[6] = read-out: Mean IC50 ± SD, Antiproliferative Effect, MCF-10A, MTT, 7.5 to 2000 μm, absorbance 540 nm, mean ± SD, three independent experiments, n = 6
[7] = SI = IC50 MCF-10A/IC50 MDA-MB-231
[8] = BALB/c 3T3 clone A31 mouse embryonic fibroblasts

| SMILES | Selectivity index SI, MCF-7 ([1]; 2 h) | IC50 [1] [µM] | Selectivity index SI, MDA-MB-231 ([2]; 2 h) | IC50 [2] [µM] | IC50 [3] [µM] | IC50 at 24 h (in vitro) | IC50 [1, 4] [µM] | IC50 [2, 5] [µM] | IC50 [3, 6] [µM] | Selectivity index SI, MCF-7 ([1]; SI = IC50 MCF-10A/IC50 MCF-7) | Selectivity index SI, MDA-MB-231 [2, 7] | IC50 at 24 h (in vitro; [8]) [µM] |
| --- | --- | --- | --- | --- | --- | --- | --- | --- | --- | --- | --- | --- |
| C[C@@H](O)[C@H](NC(=O)[C@H](Cc1ccccc1)NC(=O)[C@@H](NC(=O)[C@H](CCCCN)NC(=O)[C@@H](Cc1c[nH]c2ccccc12)NC(=O)[C@H](Cc1ccccc1)NC(=O)[C@H](Cc1ccccc1)NC(=O)[C@H](N)Cc1ccccc1)[C@@H](C)O)C(N)=O [BIM-23052, D-Phe-Phe-Phe-D-Trp-Lys-Thr-Phe-Thr-NH2] (H-[dF]FF[dW]KTFT-NH2) | 1.7 | 120 ± 6.53 | 0.61 | 335 ± 15.4 | 204 ± 6.32 | 483 ± 32.1 µM | – | – | – | – | – | – |
| N.N.[Cl][Pt][Cl] [Cisplatin, reference compound] | – | – | – | – | – | – | 43.1 ± 3.16 | 6.94 ± 0.47 | 64.3 ± 2.11 | – | – | – |
| C[C@@H](O)[C@H](NC(=O)[C@H](Cc1ccccc1)NC(=O)[C@@H](NC(=O)[C@H](CCCCN)NC(=O)[C@@H](Cc1c[nH]c2ccccc12)NC(=O)[C@H](Cc1ccc(O)cc1)NC(=O)[C@H](Cc1ccc(O)cc1)NC(=O)[C@@H](N)Cc1ccc(O)cc1)[C@@H](C)O)C(N)=O [D6, L-Tyr^1-Tyr^2-Tyr^3-D-Trp-Lys-Thr-Phe-Thr-NH2] (H-YYY[dW]KTFT-NH2) | – | – | – | – | – | > 1000 µM and 1320 µM | 359 ± 16.1 | 291 ± 12.7 | 191 ± 6.8 | 0.53 | 0.66 | – |
| C[C@@H](O)[C@H](NC(=O)[C@H](Cc1ccc(O)cc1)NC(=O)[C@@H](NC(=O)[C@H](CCCCN)NC(=O)[C@@H](Cc1c[nH]c2ccccc12)NC(=O)[C@H](Cc1ccccc1)NC(=O)[C@H](Cc1ccc(O)cc1)NC(=O)[C@@H](N)Cc1ccc(O)cc1)[C@@H](C)O)C(N)=O [D7, L-Tyr^1-Tyr^2-Phe-D-Trp-Lys-Thr-Tyr^7-Thr-NH2] (H-YYF[dW]KTYT-NH2) | – | – | – | – | – | 737 ± 20 µM | 403 ± 24.9 | 782 ± 19 | 433 ± 23.2 | 1.07 | 0.55 | – |
| C[C@@H](O)[C@H](NC(=O)[C@H](Cc1ccc(O)cc1)NC(=O)[C@@H](NC(=O)[C@H](CCCCN)NC(=O)[C@@H](Cc1c[nH]c2ccccc12)NC(=O)[C@H](Cc1ccc(O)cc1)NC(=O)[C@H](Cc1ccc(O)cc1)NC(=O)[C@@H](N)Cc1ccc(O)cc1)[C@@H](C)O)C(N)=O [D9, L-Tyr^1-Tyr^2-Tyr^3-D-Trp-Lys-Thr-Tyr^7-Thr-NH2] (H-YYY[dW]KTYT-NH2) | – | – | – | – | – | > 1000 µM and 1430 µM | 477 ± 31.4 | 1410 ± 19.1 | 395 ± 15.3 | 0.83 | 0.28 | – |
| C[C@@H](O)[C@H](NC(=O)[C@H](Cc1ccccc1)NC(=O)[C@@H](NC(=O)[C@H](CCCCN)NC(=O)[C@@H](Cc1c[nH]c2ccccc12)NC(=O)[C@H](Cc1ccccc1)NC(=O)[C@H](Cc1ccccc1)NC(=O)[C@H](N)Cc1ccc(O)cc1)[C@@H](C)O)C(N)=O [D11, D-Tyr^1-Phe-Phe-D-Trp-Lys-Thr-Phe-Thr-NH2] (H-[dY]FF[dW]KTFT-NH2) | – | – | – | – | – | > 1000 µM and 1630 µM | 873 ± 26.6 | 1720 ± 58.6 | 864 ± 52.3 | 0.99 | 0.50 | – |
| C[C@@H](O)[C@H](NC(=O)[C@H](Cc1ccc(O)cc1)NC(=O)[C@@H](NC(=O)[C@H](CCCCN)NC(=O)[C@@H](Cc1c[nH]c2ccccc12)NC(=O)[C@H](Cc1ccc(O)cc1)NC(=O)[C@H](Cc1ccc(O)cc1)NC(=O)[C@H](N)Cc1ccccc1)[C@@H](C)O)C(N)=O [D61, D-Phe-Tyr^2-Tyr^3-D-Trp-Lys-Thr-Tyr^7-Thr-NH2] (H-[dF]YY[dW]KTYT-NH2) | 1.3 | 426 ± 23.9 | 0.69 | 798 ± 24.4 | 555 ± 21.3 | 1200 ± 100 µM | – | – | – | – | – | > 1000 |
| C[C@@H](O)[C@H](NC(=O)[C@H](Cc1ccc(O)cc1)NC(=O)[C@@H](NC(=O)[C@H](CCCCN)NC(=O)[C@@H](Cc1c[nH]c2ccccc12)NC(=O)[C@H](Cc1ccc(O)cc1)NC(=O)[C@H](Cc1ccc(O)cc1)NC(=O)[C@H](N)Cc1ccc(O)cc1)[C@@H](C)O)C(N)=O [D91, D-Tyr^1-Tyr^2-Tyr^3-D-Trp-Lys-Thr-Tyr^7-Thr-NH2] (H-[dY]YY[dW]KTYT-NH2) | 1.02 | 527 ± 54.2 | 0.64 | 849 ± 21.2 | 540 ± 27.2 | 975 ± 81.7 µM | – | – | – | – | – | – |
| C[C@@H](O)[C@H](NC(=O)[C@H](Cc1ccccc1)NC(=O)[C@@H](NC(=O)[C@H](CCCCN)NC(=O)[C@@H](Cc1c[nH]c2ccccc12)NC(=O)[C@H](Cc1ccc(O)cc1)NC(=O)[C@H](Cc1ccc(O)cc1)NC(=O)[C@H](N)Cc1ccccc1)[C@@H](C)O)C(N)=O [D101, D-Phe-Tyr^2-Tyr^3-D-Trp-Lys-Thr-Phe-Thr-NH2] (H-[dF]YY[dW]KTFT-NH2) | 0.84 | 717 ± 20.8 | 0.43 | 1400 ± 20 | 604 ± 24.7 | 1400 ± 52.3 µM | – | – | – | – | – | > 1000 |
| C[C@@H](O)[C@H](NC(=O)[C@H](Cc1ccc(O)cc1)NC(=O)[C@@H](NC(=O)[C@H](CCCCN)NC(=O)[C@@H](Cc1c[nH]c2ccccc12)NC(=O)[C@H](Cc1ccccc1)NC(=O)[C@H](Cc1ccccc1)NC(=O)[C@H](N)Cc1ccccc1)[C@@H](C)O)C(N)=O [DD8, D-Phe-Phe-Phe-D-Trp-Lys-Thr-Tyr^7-Thr-NH2] (H-[dF]FF[dW]KTYT-NH2) | 0.69 | 235 ± 14.3 | 0.67 | 241 ± 13.4 | 161 ± 7.97 | 483 ± 33.9 µM | – | – | – | – | – | – |
